According to patent EP0360258B1, “Amino acid quinoline and naphthyridine derivatives” (ABBOTT LABORATORIES, priority 1988, dated 1990):
In brackets after ≈: the same amount, converted by molar mass. Where a name gives a salt, the structure may show the parent alone. Read-outs that look alike come from different tables or passages of the source.

Experiments:
[1] = test system: EN[…] ATCC 8043; assay: In vitro antibacterial activity, agar dilution MIC (BHIA); type: cell-based; settings: Enterococcus faecium, ATCC8043, 18 h
Text: (§1) The MIC results are in ug/ml. TABLE VII

[2] = test system: M[…] ATCC 4698; assay: as above; type: cell-based; settings: Micrococcus luteus, ATCC4698, 18 h
Text: as §1

[3] = test system: M[…] ATCC 9341; assay: as above; type: cell-based; settings: Micrococcus luteus, ATCC9341, 18 h
Text: as §1

[4] = test system: P[…] 296I; assay: as above; type: cell-based; settings: Burkholderia cepacia, 18 h
Text: as §1

[5] = test system: STR[…] 508; assay: as above; type: cell-based; settings: Streptococcus agalactiae, 18 h
Text: as §1

[6] = test system: STR[…] EES61; assay: as above; type: cell-based; settings: Streptococcus pyogenes, 18 h
Text: as §1

[7] = test system: STREPTOCOCCUS BOVIS A5169; assay: as above; type: cell-based; settings: Streptococcus equinus, 18 h
[8] = test system: STREPTOCOCCUS PYOGENES 930 CONST; assay: as above; type: cell-based; settings: 18 h
[9] = test system: STR[…] 2548 INDUC; assay: as above; type: cell-based; settings: Streptococcus pyogenes, 18 h
[10] = test system: ESCHERICHIA COLI JUHL; assay: as above; type: cell-based; settings: 18 h
[11] = test system: ESCHERICHIA COLI SS; assay: as above; type: cell-based; settings: Brain Heart Infusion Agar (BHIA), 36° C, 18 h, strain SS
[12] = test system: ESCHERICHIA COLI DC-2; assay: as above; type: cell-based; settings: 18 h
[13] = test system: ESCHERICHIA COLI H560; assay: as above; type: cell-based; settings: 18 h
[14] = test system: ESCHERICHIA COLI KNK 437; assay: as above; type: cell-based; settings: Brain Heart Infusion Agar (BHIA), 36° C, 18 h, strain KNK 437
[15] = test system: ENTEROBACTER AEROGENES ATCC 13048; assay: as above; type: cell-based; settings: Klebsiella aerogenes
[16] = test system: KLEBSIELLA PNEUMONIAE ATCC 8045; assay: as above; type: cell-based
[17] = test system: PROVIDENCIA STUARTII CMX 640; assay: as above; type: cell-based; settings: 18 h
[18] = test system: PSEUDOMONAS AERUGINOSA BMH10; assay: as above; type: cell-based; settings: 18 h
[19] = test system: PSEUDOMONAS AERUGINOSA K799/61; assay: as above; type: cell-based; settings: Brain Heart Infusion Agar (BHIA), 36° C, 18 h, strain K799/61
[20] = test system: ACINETOBACTER SP CMX 669; assay: as above; type: cell-based; settings: 18 h
[21] = physchem
[22] = test system: PSEUDOMONAS AERUGINOSA A5007; assay: In vitro antibacterial activity, agar dilution MIC (BHIA); type: cell-based; settings: Brain Heart Infusion Agar (BHIA), 36° C, 18 h, strain A5007
Text: as §1

[23] = test system: PSEUDOMONAS AERUGINOSA K799/WT; assay: as above; type: cell-based; settings: Brain Heart Infusion Agar (BHIA), 36° C, 18 h, strain K799/WT
Text: as §1

[24] = test system: Stap. Aureus CMX 553; assay: Second in vitro antibacterial test, MIC (BHIB); type: cell-based; settings: Staphylococcus aureus, Brain Heart Infusion Broth (BHIB), read-out: MIC
[25] = test system: Strep. pyogenes EES 61; assay: Second in vitro antibacterial test, MIC (BHIB); type: cell-based; settings: Streptococcus pyogenes, EES61, Brain Heart Infusion Broth (BHIB), read-out: MIC
[26] = test system: E.Coli Juhl; assay: Second in vitro antibacterial test, MIC (BHIB); type: cell-based; settings: Escherichia coli, Brain Heart Infusion Broth (BHIB), read-out: MIC
[27] = test system: Ps.Aeruginosa A5007; assay: Second in vitro antibacterial test, MIC (BHIB); type: cell-based; settings: Pseudomonas aeruginosa, Brain Heart Infusion Broth (BHIB), read-out: MIC
[28] = Plasma level in dog after oral dose; type: in vivo; settings: 10 mg/kg, 10 mg equivalent/kg oral dose, HPLC
Text: The plasma samples were collected and determined by the HPLC analysis.

[29] = Brain Heart Infusion Agar (BHIA), 36° C, strain JUHL, read-out: MIC
[30] = ATCC13048, Brain Heart Infusion Agar (BHIA), 36° C, 18 h, strain ATCC 13048, read-out: MIC
[31] = ATCC8045, Brain Heart Infusion Agar (BHIA), 36° C, 18 h, strain ATCC 8045, read-out: MIC
[32] = Brain Heart Infusion Agar (BHIA), 36° C, strain BMH10, read-out: MIC
[33] = Brain Heart Infusion Agar (BHIA), 36° C, strain CMX 669, read-out: MIC
[34] = Brain Heart Infusion Agar (BHIA), 36° C, strain A5169, read-out: MIC
[35] = Brain Heart Infusion Agar (BHIA), 36° C, strain CMX 640, read-out: MIC

NCC(=O)N[C@@H](Cc1ccccc1)C(=O)NC1CCN(c2nc3c(cc2F)c(=O)c(C(=O)O)cn3-c2ccc(F)cc2F)C1 (stereo partly drawn) [Example 1b, 7-[(3-Gly-L-Phe-amino)-1-pyrrolidinyl]-1-(2,4-difluorophenyl)-6-fluoro-1,4-dihydro-4-oxo-1,8-naphthyridine-3-carboxylic acid hydrochloride]
MIC [1]: 1.56 µg/mL | MIC [2]: 0.78 µg/mL | MIC [3]: 6.25 µg/mL | MIC [4]: 50 µg/mL | MIC [5]: 1.56 µg/mL | MIC [6]: 1.56 µg/mL | MIC [7]: 1.56 µg/mL | MIC [8]: 0.78 µg/mL | MIC [9]: 0.78 µg/mL | MIC [10, 29]: 3.12 µg/mL | MIC [11]: 0.2 µg/mL | MIC [12]: 100 µg/mL | MIC [13]: 1.56 µg/mL | MIC [14]: 25 µg/mL | MIC [15, 30]: 12.5 µg/mL | MIC [16, 31]: 12.5 µg/mL | MIC [17]: 100 µg/mL | MIC [18, 32]: 25 µg/mL | MIC [19]: 12.5 µg/mL | MIC [20, 33]: 12.5 µg/mL | solubility ([21]; pH 7.4): 1040 µg/mL | solubility ([21]; water): > 98000 µg/mL

NC(Cc1ccccc1)C(=O)NC1CCN(c2nc3c(cc2F)c(=O)c(C(=O)O)cn3-c2ccc(F)cc2F)C1 (centres unmarked) [Example 5]
MIC [1]: 3.1 µg/mL (≈ 5.62 µM) | MIC [2]: 12.5 µg/mL (≈ 22.7 µM) | MIC [3]: 25 µg/mL (≈ 45.3 µM) | MIC [22]: 50 µg/mL (≈ 90.7 µM) | MIC [23]: 25 µg/mL (≈ 45.3 µM) | MIC [4]: > 100 µg/mL | MIC [5]: 3.1 µg/mL (≈ 5.62 µM) | MIC [6]: 3.1 µg/mL (≈ 5.62 µM) | MIC [7, 34]: 6.2 µg/mL (≈ 11.2 µM) | MIC ([8]; Brain Heart Infusion Agar (BHIA), 36° C, strain 930 CONST, read-out: MIC): 1.56 µg/mL (≈ 2.83 µM) | MIC [9]: 0.78 µg/mL (≈ 1.41 µM) | MIC [10]: 3.1 µg/mL (≈ 5.62 µM) | MIC [11]: 0.1 µg/mL (≈ 0.181 µM) | MIC [12]: 50 µg/mL (≈ 90.7 µM) | MIC [13]: 3.1 µg/mL (≈ 5.62 µM) | MIC [14]: 100 µg/mL (≈ 181 µM) | MIC ([15]; ATCC13048, 18 h): 12.5 µg/mL (≈ 22.7 µM) | MIC [16, 31]: 1.56 µg/mL (≈ 2.83 µM) | MIC [17, 35]: > 100 µg/mL | MIC [18]: 25 µg/mL (≈ 45.3 µM) | MIC [19]: 1.56 µg/mL (≈ 2.83 µM) | MIC [20]: 12.5 µg/mL (≈ 22.7 µM) | solubility ([21]; pH 7.4): 340 µg/mL (≈ 616 µM) | solubility ([21]; water): > 101000 µg/mL

CC(N)C(=O)NC(C)C(=O)NC1CCN(c2nc3c(cc2F)c(=O)c(C(=O)O)cn3-c2ccc(F)cc2F)C1 (centres unmarked) [Example 15]
MIC [1]: 50 µg/mL (≈ 91.5 µM) | MIC [2]: 100 µg/mL (≈ 183 µM) | MIC [3]: > 100 µg/mL | MIC [23]: 50 µg/mL (≈ 91.5 µM) | MIC [4]: 50 µg/mL (≈ 91.5 µM) | MIC [5]: 12.5 µg/mL (≈ 22.9 µM) | MIC [6]: 12.5 µg/mL (≈ 22.9 µM) | MIC [7, 34]: 50 µg/mL (≈ 91.5 µM) | MIC [8]: 12.5 µg/mL (≈ 22.9 µM) | MIC [9]: 12.5 µg/mL (≈ 22.9 µM) | MIC [10]: 12.5 µg/mL (≈ 22.9 µM) | MIC [11]: 0.39 µg/mL (≈ 0.714 µM) | MIC ([12]; Brain Heart Infusion Agar (BHIA), 36° C, strain DC-2, read-out: MIC): 100 µg/mL (≈ 183 µM) | MIC ([13]; Brain Heart Infusion Agar (BHIA), 36° C, strain H560, read-out: MIC): 6.2 µg/mL (≈ 11.3 µM) | MIC [14]: 50 µg/mL (≈ 91.5 µM) | MIC [15, 30]: 25 µg/mL (≈ 45.7 µM) | MIC ([16]; ATCC8045, 18 h): 12.5 µg/mL (≈ 22.9 µM) | MIC [17, 35]: 100 µg/mL (≈ 183 µM) | MIC [18, 32]: 100 µg/mL (≈ 183 µM) | MIC [19]: 3.1 µg/mL (≈ 5.67 µM) | MIC [20]: 12.5 µg/mL (≈ 22.9 µM) | solubility ([21]; pH 7.4): 1070 µg/mL (≈ 1960 µM) | solubility ([21]; water): > 70000 µg/mL

CCCC(N)C(=O)NC1CCN(c2nc3c(cc2F)c(=O)c(C(=O)O)cn3-c2ccc(F)cc2)C1 (centres unmarked) [Example 26i]
MIC [24]: 1.56 µg/mL (≈ 3.21 µM) | MIC [25]: 1.56 µg/mL (≈ 3.21 µM) | MIC [26]: 0.39 µg/mL (≈ 0.803 µM) | MIC [27]: 6.2 µg/mL (≈ 12.8 µM) | solubility ([21]; pH 7.4): 240 µg/mL (≈ 494 µM) | solubility ([21]; water): > 9000 µg/mL

CS(=O)(=O)CC[C@H](N)C(=O)NC1CCN(c2nc3c(cc2F)c(=O)c(C(=O)O)cn3-c2ccc(F)cc2F)C1 (stereo partly drawn) [Example 31c, 7-[3-L-Methioninesulfone-Amino-1-Pyrrolidinyl]-1-(2,4-Difluorophenyl)-6-Fluoro-1,4-Dihydro-4-Oxo 1,8-Naphthyridine-3-Carboxylic Acid Hydrochloride]
MIC [24]: 25 µg/mL | MIC [25]: 25 µg/mL | MIC [26]: 12.5 µg/mL | MIC [27]: > 100 µg/mL | solubility ([21]; pH 7.4): 30 µg/mL | solubility ([21]; water): > 35000 µg/mL

N[C@@H](Cc1cnc[nH]1)C(=O)NC1CCN(c2nc3c(cc2F)c(=O)c(C(=O)O)cn3-c2ccc(F)cc2F)C1 (stereo partly drawn) [Example 44c, 7-[3-L-Histidine-Amino-1-Pyrrolidinyl)-1-(2,4-Difluorophenyl)-6-Fluoro-1,4-Dihydro-4-oxo-1,8-Naphthyridine-3-Carboxylic Acid Dihydrochloride]
MIC [24]: 16 µg/mL | MIC [25]: 32 µg/mL | MIC [26]: 64 µg/mL | MIC [27]: > 64 µg/mL | solubility ([21]; pH 7.4): 300 µg/mL | solubility ([21]; water): > 100000 µg/mL

NC1CCN(c2nc3c(cc2F)c(=O)c(C(=O)O)cn3-c2ccc(F)cc2F)C1 (centres unmarked) [tosufloxacin, 7-(3-amino-1-pyrrolidinyl)-6-fluoro,1-(2,4-difluorophenyl)-1,4-dihydro-4-oxo-1,8-naphthyridine-3-carboxylic acid, reference compound]
MIC [5]: 0.39 µg/mL (≈ 0.965 µM) | MIC [7]: 0.39 µg/mL (≈ 0.965 µM) | MIC [9]: 0.1 µg/mL (≈ 0.247 µM) | MIC [10, 29]: 0.02 µg/mL (≈ 0.0495 µM) | MIC [11]: 0.005 µg/mL (≈ 0.0124 µM) | MIC [12]: 0.39 µg/mL (≈ 0.965 µM) | MIC [15, 30]: 0.05 µg/mL (≈ 0.124 µM) | MIC [16, 31]: 0.02 µg/mL (≈ 0.0495 µM) | MIC [18, 32]: 0.1 µg/mL (≈ 0.247 µM) | MIC [20, 33]: 0.1 µg/mL (≈ 0.247 µM) | AUC(0-t) at 32 h [28]: 5300 ng·h/mL | Cmax ([28]; read-out: C max (range)): 670 ng/mL | solubility ([21]; pH 7.4): 10 µg/mL (≈ 24.7 µM) | solubility ([21]; water): 650 µg/mL (≈ 1610 µM)
